From article PMC10510102, “Efficient Ligand Discovery Using Sulfur(VI) Fluoride Reactive Fragments” (ACS Chemical Biology, 2023) come the findings set out here.

This assay has as its target BCL6 BTB/POZ domain (Homo sapiens, UniProt P41182, C67R/C84N/C8Q). Put plainly: Cocrystal structure with BCL6 BTB/POZ dimer. Further details: hBCL6-Flag 3Cmut (5-129) produced in house; FLAG (C); made in house. Conditions: via a sulfonate ester. The source says: Crystal structures of SFs 2f and 2s within BCL6 were generated to further investigate the binding mode of the fragments; this used a previously published protocol.[42] […] The twisted conformation of 2s could also represent a premodified state of the protein–SF complex, which may have become disrupted for 2f upon covalent modification with Tyr57 to afford the extended conformation observed.
The fluorescence intensity data from the individual replicates of each sample type were normalized and identically truncated within GraphPad Prism 5.0.4.11 These values were subsequently fitted to equation (4) corresponding to a Boltzmann sigmoid in order to obtain the melting temperature (“V50”; T m) of the protein:
Y=BOTTOM+((TOP+BOTTOM)/(1+exp((V50–X)/SLOPE))) (4)
The three obtained T m values were averaged to give a final T m value in each case. The normalized fluorescence data for the three replicates of each sample were averaged to yield a single dataset for each case, which were then plotted in GraphPad Prism 5.0.4 to give the plots shown in the manuscript.11
Table S9. Thermal melting temperatures of unmodified and covalently modified BCL6 BTB/POZ domain as determined by differential scanning fluorimetry measurements.
The arithmetic mean and standard deviation from three replicates are shown.
Hit Chemotype Protein Species Tm / °C ΔT m / °C […]

Consider `CN(C)C(=O)Nc1cccc(CNC(=O)Cc2ccc(S(=O)(=O)F)cc2)c1` [2f], for which the “residue covalently conjugated in cocrystal structure” value is listed as “Tyr57”.
